Test results from ChEMBL document CHEMBL3608278 (J Med Chem, 2015).

How the values were obtained:
[1] = target: T1, Potassium voltage-gated channel subfamily A member 3 (Homo sapiens, UniProt P22001); design: species or system Blood
[2] = target: T1, Potassium voltage-gated channel subfamily A member 3; experiment: cell-based; design: species or system Blood

T1 sequence (P22001 whole entry): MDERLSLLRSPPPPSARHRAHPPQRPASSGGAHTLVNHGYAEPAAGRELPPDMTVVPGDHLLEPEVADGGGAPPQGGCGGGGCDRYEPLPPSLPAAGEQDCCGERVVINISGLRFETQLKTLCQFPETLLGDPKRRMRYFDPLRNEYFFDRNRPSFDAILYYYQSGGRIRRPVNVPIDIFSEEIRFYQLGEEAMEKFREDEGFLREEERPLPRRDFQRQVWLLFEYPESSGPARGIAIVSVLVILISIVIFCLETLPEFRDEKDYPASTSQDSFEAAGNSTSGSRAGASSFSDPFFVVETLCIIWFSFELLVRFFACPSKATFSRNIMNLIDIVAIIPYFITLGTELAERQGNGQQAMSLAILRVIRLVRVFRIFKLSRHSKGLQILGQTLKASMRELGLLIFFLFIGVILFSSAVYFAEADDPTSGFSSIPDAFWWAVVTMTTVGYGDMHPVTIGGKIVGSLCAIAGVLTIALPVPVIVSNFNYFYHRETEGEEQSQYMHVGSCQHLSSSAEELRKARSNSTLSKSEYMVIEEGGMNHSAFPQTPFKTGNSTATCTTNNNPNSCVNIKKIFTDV

| Structure (SMILES) | IC50 [1] [nM] | IC50 [2] [nM] |
| --- | --- | --- |
| CC[C@H](C)[C@@H]1NC(=O)[C@@H](NC(=O)[C@H](CO)NC(=O)[C@@H](N)CCCNC(=N)N)CSSC[C@@H](C(=O)O)NC(=O)[C@H](CCC(=O)O)NC(=O)CNC(=O)[C@@H]2CSSC[C@@H]3NC(=O)[C@H](CCC(N)=O)NC(=O)[C@H](Cc4ccccc4)NC(=O)[C@H](C)NC(=O)[C@H]([C@@H](C)O)NC(=O)[C@H](CSSC[C@H](NC(=O)[C@H](Cc4ccccc4)NC(=O)[C@H](CO)NC(=O)[C@H](CC(C)C)NC(=O)[C@H](CCCNC(=N)N)NC(=O)[C@H](Cc4ccc(O)cc4)NC(=O)[C@H](CCCCN)NC(=O)[C@H](CCSC)NC(=O)[C@H](CO)NC(=O)[C@H](Cc4cnc[nH]4)NC(=O)[C@H](CCCCN)NC3=O)C(=O)N[C@@H](CCCNC(=N)N)C(=O)N[C@@H](CCCCN)C(=O)N[C@@H]([C@@H](C)O)C(=O)N2)NC(=O)[C@H](CCCNC(=N)N)NC(=O)[C@H](CO)NC(=O)[C@H](CCCCN)NC(=O)[C@@H]2CCCN2C(=O)[C@H]([C@@H](C)CC)NC(=O)[C@H]([C@@H](C)O)NC(=O)[C@H](CC(=O)O)NC1=O | 0.124 |  |
| CC[C@H](C)[C@@H]1NC(=O)[C@@H](NC(=O)[C@H](CO)NC(=O)[C@@H](N)CCCNC(=N)N)CSSC[C@@H](C(=O)O)NC(=O)[C@H]([C@@H](C)O)NC(=O)[C@H](C)NC(=O)[C@@H]2CSSC[C@@H]3NC(=O)[C@H](CCC(N)=O)NC(=O)[C@H](Cc4ccccc4)NC(=O)[C@H](C)NC(=O)[C@H]([C@@H](C)O)NC(=O)[C@H](CSSC[C@H](NC(=O)[C@H](Cc4ccccc4)NC(=O)[C@H](CO)NC(=O)[C@H](CC(C)C)NC(=O)[C@H](CCCNC(=N)N)NC(=O)[C@H](Cc4ccc(O)cc4)NC(=O)[C@H](CCCCN)NC(=O)[C@H](CCSC)NC(=O)[C@H](CO)NC(=O)[C@H](Cc4cnc[nH]4)NC(=O)[C@H](CCCCN)NC3=O)C(=O)N[C@@H](CCCNC(=N)N)C(=O)N[C@@H](CCCCN)C(=O)N[C@@H]([C@@H](C)O)C(=O)N2)NC(=O)[C@H](CCCNC(=N)N)NC(=O)[C@H](CO)NC(=O)[C@H](CCCCN)NC(=O)[C@@H]2CCCN2C(=O)[C@H]([C@@H](C)CC)NC(=O)[C@H]([C@@H](C)O)NC(=O)[C@H](CC(=O)O)NC1=O | 0.122 | 0.059 |
| CC[C@H](C)[C@@H]1NC(=O)[C@@H](NC(=O)[C@H](CO)NC(=O)[C@@H](N)CCCNC(=N)N)CSSC[C@@H](C(=O)O)NC(=O)[C@H]([C@@H](C)O)NC(=O)CNC(=O)[C@@H]2CSSC[C@@H]3NC(=O)[C@H](CCC(N)=O)NC(=O)[C@H](Cc4ccccc4)NC(=O)[C@H](C)NC(=O)[C@H]([C@@H](C)O)NC(=O)[C@H](CSSC[C@H](NC(=O)[C@H](Cc4ccccc4)NC(=O)[C@H](CO)NC(=O)[C@H](CC(C)C)NC(=O)[C@H](CCCNC(=N)N)NC(=O)[C@H](Cc4ccc(O)cc4)NC(=O)[C@H](CCCCN)NC(=O)[C@H](CCSC)NC(=O)[C@H](CO)NC(=O)[C@H](Cc4c[nH]cn4)NC(=O)[C@H](CCCCN)NC3=O)C(=O)N[C@@H](CCCNC(=N)N)C(=O)N[C@@H](CCCCN)C(=O)N[C@@H]([C@@H](C)O)C(=O)N2)NC(=O)[C@H](CCCNC(=N)N)NC(=O)[C@H](CO)NC(=O)[C@H](CCCCN)NC(=O)[C@@H]2CCCN2C(=O)[C@H]([C@@H](C)CC)NC(=O)[C@H](CCCNC(=N)N)NC(=O)[C@H](CC(=O)O)NC1=O | 0.304 | 0.215 |
| CC[C@H](C)[C@@H]1NC(=O)[C@@H](NC(=O)[C@H](CO)NC(=O)[C@@H](N)CCCNC(=N)N)CSSC[C@@H](C(=O)N[C@@H](C)C(=O)O)NC(=O)[C@H]([C@@H](C)O)NC(=O)CNC(=O)[C@@H]2CSSC[C@@H]3NC(=O)[C@H](CCCCN)NC(=O)[C@H](Cc4ccccc4)NC(=O)[C@H](C)NC(=O)[C@H]([C@@H](C)O)NC(=O)[C@H](CSSC[C@H](NC(=O)[C@H](Cc4ccccc4)NC(=O)[C@H](CO)NC(=O)[C@H](CC(C)C)NC(=O)[C@H](CCCNC(=N)N)NC(=O)[C@H](Cc4ccc(O)cc4)NC(=O)[C@H](CCCCN)NC(=O)[C@H](CCSC)NC(=O)[C@H](CO)NC(=O)[C@H](Cc4cnc[nH]4)NC(=O)[C@H](CCCCN)NC3=O)C(=O)N[C@@H](CCCNC(=N)N)C(=O)N[C@@H](CCCCN)C(=O)N[C@@H]([C@@H](C)O)C(=O)N2)NC(=O)[C@H](CCCNC(=N)N)NC(=O)[C@H](CO)NC(=O)[C@H](CCCCN)NC(=O)[C@@H]2CCCN2C(=O)[C@H]([C@@H](C)CC)NC(=O)[C@H]([C@@H](C)O)NC(=O)[C@H](CC(=O)O)NC1=O | 0.266 | 0.138 |
| CC[C@H](C)[C@@H]1NC(=O)[C@@H](NC(=O)[C@H](CO)NC(=O)[C@@H](N)CCCNC(=N)N)CSSC[C@@H](C(=O)O)NC(=O)[C@H]([C@@H](C)O)NC(=O)CNC(=O)[C@@H]2CSSC[C@@H]3NC(=O)[C@H](CCC(N)=O)NC(=O)[C@H](Cc4ccccc4)NC(=O)[C@H](C)NC(=O)[C@H]([C@@H](C)O)NC(=O)[C@H](CSSC[C@H](NC(=O)[C@H](Cc4ccccc4)NC(=O)[C@H](CO)NC(=O)[C@H](CC(C)C)NC(=O)[C@H](CCCNC(=N)N)NC(=O)[C@H](Cc4ccc(O)cc4)NC(=O)[C@H](CCCCN)NC(=O)[C@H](CCSC)NC(=O)[C@H](CO)NC(=O)[C@H](Cc4cccc5ccccc45)NC(=O)[C@H](CCCCN)NC3=O)C(=O)N[C@@H](CCCNC(=N)N)C(=O)N[C@@H](CCCCN)C(=O)N[C@@H]([C@@H](C)O)C(=O)N2)NC(=O)[C@H](CCCNC(=N)N)NC(=O)[C@H](CO)NC(=O)[C@H](CCCCN)NC(=O)[C@@H]2CCCN2C(=O)[C@H]([C@@H](C)CC)NC(=O)[C@H]([C@@H](C)O)NC(=O)[C@H](CC(=O)O)NC1=O | 0.255 | 0.153 |
| CC[C@H](C)[C@@H]1NC(=O)[C@@H](NC(=O)[C@H](CO)NC(=O)[C@@H](N)CCCNC(=N)N)CSSC[C@@H](C(=O)O)NC(=O)[C@H]([C@@H](C)O)NC(=O)CNC(=O)[C@@H]2CSSC[C@@H]3NC(=O)[C@H](CCC(N)=O)NC(=O)[C@H](Cc4ccccc4)NC(=O)[C@H](C)NC(=O)[C@H]([C@@H](C)O)NC(=O)[C@H](CSSC[C@H](NC(=O)[C@H](Cc4ccccc4)NC(=O)[C@H](CO)NC(=O)[C@H](CC(C)C)NC(=O)[C@H](CCCNC(=N)N)NC(=O)[C@H](Cc4ccc(O)cc4)NC(=O)[C@H](CCCCN)NC(=O)[C@H](CCSC)NC(=O)[C@H](CO)NC(=O)[C@H](Cc4cnc[nH]4)NC(=O)[C@H](CCCCN)NC3=O)C(=O)N[C@@H](CCCNC(=N)N)C(=O)N[C@@H](CCCCN)C(=O)N[C@@H]([C@@H](C)O)C(=O)N2)NC(=O)[C@H](Cc2cccc3ccccc23)NC(=O)[C@H](CO)NC(=O)[C@H](CCCCN)NC(=O)[C@@H]2CCCN2C(=O)[C@H]([C@@H](C)CC)NC(=O)[C@H]([C@@H](C)O)NC(=O)[C@H](CC(=O)O)NC1=O | 1.65 | 1.14 |
| CC[C@H](C)[C@@H]1NC(=O)[C@@H](NC(=O)[C@H](CCCNC(=N)N)NC(=O)[C@@H](N)CCCNC(=N)N)CSSC[C@@H](C(=O)O)NC(=O)[C@H]([C@@H](C)O)NC(=O)CNC(=O)[C@@H]2CSSC[C@@H]3NC(=O)[C@H](CCC(N)=O)NC(=O)[C@H](Cc4ccccc4)NC(=O)[C@H](C)NC(=O)[C@H]([C@@H](C)O)NC(=O)[C@H](CSSC[C@H](NC(=O)[C@H](Cc4ccccc4)NC(=O)[C@H](CO)NC(=O)[C@H](CC(C)C)NC(=O)[C@H](CCCNC(=N)N)NC(=O)[C@H](Cc4ccc(O)cc4)NC(=O)[C@H](CCCCN)NC(=O)[C@H](CCSC)NC(=O)[C@H](CO)NC(=O)[C@H](Cc4cnc[nH]4)NC(=O)[C@H](CCCCN)NC3=O)C(=O)N[C@@H](CCCNC(=N)N)C(=O)N[C@@H](CCCCN)C(=O)N[C@@H]([C@@H](C)O)C(=O)N2)NC(=O)[C@H](CCCNC(=N)N)NC(=O)[C@H](CO)NC(=O)[C@H](CCCCN)NC(=O)[C@@H]2CCCN2C(=O)[C@H]([C@@H](C)CC)NC(=O)[C@H]([C@@H](C)O)NC(=O)[C@H](CC(=O)O)NC1=O | 0.116 | 0.087 |
| CC[C@H](C)[C@@H]1NC(=O)[C@@H](NC(=O)[C@H](CO)NC(=O)[C@@H](N)CCCNC(=N)N)CSSC[C@@H](C(=O)O)NC(=O)[C@H]([C@@H](C)O)NC(=O)CNC(=O)[C@@H]2CSSC[C@@H]3NC(=O)[C@H](CCC(N)=O)NC(=O)[C@H](Cc4ccccc4)NC(=O)[C@H](C)NC(=O)[C@H]([C@@H](C)O)NC(=O)[C@H](CSSC[C@H](NC(=O)[C@H](Cc4ccccc4)NC(=O)[C@H](CO)NC(=O)[C@H](CC(C)C)NC(=O)[C@H](C)NC(=O)[C@H](Cc4ccc(O)cc4)NC(=O)[C@H](CCCCN)NC(=O)[C@H](CCSC)NC(=O)[C@H](CO)NC(=O)[C@H](Cc4cnc[nH]4)NC(=O)[C@H](CCCCN)NC3=O)C(=O)N[C@@H](CCCNC(=N)N)C(=O)N[C@@H](CCCCN)C(=O)N[C@@H]([C@@H](C)O)C(=O)N2)NC(=O)[C@H](CCCNC(=N)N)NC(=O)[C@H](CO)NC(=O)[C@H](CCCCN)NC(=O)[C@@H]2CCCN2C(=O)[C@H]([C@@H](C)CC)NC(=O)[C@H]([C@@H](C)O)NC(=O)[C@H](CC(=O)O)NC1=O | 0.186 | 0.045 |
| CC[C@H](C)[C@@H]1NC(=O)[C@@H](NC(=O)[C@H](CO)NC(=O)[C@@H](N)CCCNC(=N)N)CSSC[C@@H](C(=O)O)NC(=O)[C@H]([C@@H](C)O)NC(=O)CNC(=O)[C@@H]2CSSC[C@@H]3NC(=O)[C@H](CCC(N)=O)NC(=O)[C@H](Cc4ccccc4)NC(=O)[C@H](C)NC(=O)[C@H]([C@@H](C)O)NC(=O)[C@H](CSSC[C@H](NC(=O)[C@H](Cc4ccccc4)NC(=O)[C@H](CO)NC(=O)[C@H](CC(C)C)NC(=O)[C@H](CCCNC(=N)N)NC(=O)[C@H](Cc4ccc(O)cc4)NC(=O)[C@H](CCCCN)NC(=O)[C@H](CCSC)NC(=O)[C@H](CO)NC(=O)[C@H](Cc4cnc[nH]4)NC(=O)[C@H](CCCCN)NC3=O)C(=O)N[C@@H](CCCNC(=N)N)C(=O)N[C@@H](CCCCN)C(=O)N[C@@H]([C@@H](C)O)C(=O)N2)NC(=O)[C@H](CCCNC(=N)N)NC(=O)[C@H](CO)NC(=O)[C@H](CCCCN)NC(=O)[C@H](CCC(=O)O)NC(=O)[C@H]([C@@H](C)CC)NC(=O)[C@H]([C@@H](C)O)NC(=O)[C@H](CC(=O)O)NC1=O | 0.239 |  |
